Assay results as given in patent publication US20230066011A1, “PYRROLOPYRIMIDINE DERIVATIVE, AND PHARMACEUTICAL COMPOSITION FOR PREVENTING OR TREATING PROTEIN KINASE-RELATED DISEASE COMPRISING SAME AS ACTIVE INGREDIENT” (VORONOI CO., LTD., priority 2019, published 2023).

Legend:
LRRK2 = LRRK2 (Homo sapiens, UniProt Q5S007); assay: LRRK2 enzyme inhibition, ADP-Glo kinase assay; assay type: biochemical; set-up: purchased Invitrogen PR8604B; details: ATP 10 μM
Method in brief: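 ADP-Glo luminescent read-out of ADP formed by purified human LRRK2 enzyme (25 ng), 10 μM ATP, 0.2 μg substrate, 25° C for 2 h, Tris-HCl pH 7.4 buffer with MgCl2, BSA, DTT. Inhibition versus untreated solvent control over twelve final concentrations (50 μM downward) gives IC50.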

LRRK2 (G2019S) = LRRK2 (G2019S) (Homo sapiens, UniProt Q5S007, G2019S); assay: LRRK2 G2019S enzyme inhibition, ADP-Glo kinase assay; assay type: biochemical; set-up: purchased SignalChem L10-12GG; details: ATP 25 μM
Method in brief: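 IC50 derived from luminescent ADP-Glo readout against untreated solvent control, twelve final compound concentrations from 50 μM downward. Reaction: recombinant human LRRK2 G2019S enzyme, 25 μM ATP, substrate, pH 7.4 Tris buffer with MgCl2/BSA/DTT, 25° C. for 2 hours.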

MDA-MB-231 cell line = assay: Inhibition of proliferation of MDA-MB-231 cancer cells (Cell Titer-Glo); assay type: cell-based; details: Homo sapiens, 72 hours
Method in brief: (§1)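 Growth inhibition over 72 h: cells seeded at 2,000/well and dosed at eleven 3-fold-spaced final concentrations from 10.000000 μM. Read-out is ATP luminescence (Cell Titer-Glo, 10 min, room temperature), with GI50 derived from it.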

SHP-77 = assay: Inhibition of proliferation of SHP-77 cancer cells (Cell Titer-Glo); assay type: cell-based; details: Homo sapiens, SHP77, 72 hours
Method in brief: as §1

MDA-MB-468 cell line = assay: Inhibition of proliferation of MDA-MB-468 cancer cells (Cell Titer-Glo); assay type: cell-based; details: Homo sapiens, MDA-MB-468, 72 hours
Description: To evaluate an inhibitory effect on the proliferation of cancer cells, each of an MDA-MB-231 cell line (Korean Cell Line Bank #30026) and an MDA-MB-468 cell line as triple-negative breast cancer cell lines, and SHP-77 (ATCC #CRL-2195) as a small-cell lung cancer cell line was cultured in DMEM (HyClone #SH30243) or an RPMI medium (HyClone #SH3027.01) to analyze a cell growth rate. More specifically, a cell line was plated on a 96-well flat bottom plate (Corning #3903) at a density of 2,000 cells/100 μL per well, and then treated with 11 concentrations of the Example compound, a solution of which was diluted 3-fold so that a final concentration of the compound was 10.000000, 3.333333, 1.111111, 0.370370, 0.123457, 0.041152, 0.013717, 0.004572, 0.001524, 0.000508, and 0.000169 μM. After 72 hours, each of the culture media was treated with 100 μL of Cell Titer-Glo (Promega G7573), and then cultured at room temperature for 10 minutes. Then, a degree of luminescence was measured using a microplate reader. A GI50 value was calculated from the measured degree of luminescence using Prism (Version 8.2 GraphPad) software.

human GST-DYRK1A = target: T1, human GST-DYRK1A (Homo sapiens, UniProt Q13627); assay: GST-DYRK1A enzyme inhibition, ADP-Glo kinase assay; assay type: biochemical; details: ATP 10 μM, GST-DYRK1A full length, read-out: DYRK1 IC50
T1 construct: purified human GST-DYRK1A (full length, Thermo Scientifics) enzyme; purchased Thermo Scientifics
Method in brief: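 Full-length enzyme (10 ng) was incubated with 10 μM ATP and a specific substrate for 1 h at 25 °C in 40 mM Tris-HCl pH 7.4, 20 mM MgCl2, 0.5 mg/mL BSA, 50 μM DTT. Luminescence was read against a solvent control, and IC50 values were derived from 3 data sets.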

human GST-CLK1 = target: T2, human GST-CLK1 (Homo sapiens, UniProt P49759); assay: GST-CLK1 enzyme inhibition, ADP-Glo kinase assay; assay type: biochemical; details: ATP 10 μM, GST-CLK1 129-end
T2 construct: purified human GST-CLK1 (129-end, SignalChem) enzyme; purchased SignalChem
Method in brief: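 ADP-Glo luminescence read-out, relative to untreated solvent control, gave IC50 (nM) from triplicate data sets. Reactions ran an hour at 25° C with 3 ng GST-CLK1 (residues 129-end), 10 μM ATP and specific substrate in Tris-HCl pH 7.4 buffer with MgCl2, BSA and DTT.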

TTK = target: T3, TTK (Homo sapiens, UniProt P33981); assay: TTK enzyme inhibition, ADP-Glo kinase assay; assay type: biochemical; set-up: purchased SignalChem T20-10G; details: ATP 5 μM
T3 sequence (P33981 1-857): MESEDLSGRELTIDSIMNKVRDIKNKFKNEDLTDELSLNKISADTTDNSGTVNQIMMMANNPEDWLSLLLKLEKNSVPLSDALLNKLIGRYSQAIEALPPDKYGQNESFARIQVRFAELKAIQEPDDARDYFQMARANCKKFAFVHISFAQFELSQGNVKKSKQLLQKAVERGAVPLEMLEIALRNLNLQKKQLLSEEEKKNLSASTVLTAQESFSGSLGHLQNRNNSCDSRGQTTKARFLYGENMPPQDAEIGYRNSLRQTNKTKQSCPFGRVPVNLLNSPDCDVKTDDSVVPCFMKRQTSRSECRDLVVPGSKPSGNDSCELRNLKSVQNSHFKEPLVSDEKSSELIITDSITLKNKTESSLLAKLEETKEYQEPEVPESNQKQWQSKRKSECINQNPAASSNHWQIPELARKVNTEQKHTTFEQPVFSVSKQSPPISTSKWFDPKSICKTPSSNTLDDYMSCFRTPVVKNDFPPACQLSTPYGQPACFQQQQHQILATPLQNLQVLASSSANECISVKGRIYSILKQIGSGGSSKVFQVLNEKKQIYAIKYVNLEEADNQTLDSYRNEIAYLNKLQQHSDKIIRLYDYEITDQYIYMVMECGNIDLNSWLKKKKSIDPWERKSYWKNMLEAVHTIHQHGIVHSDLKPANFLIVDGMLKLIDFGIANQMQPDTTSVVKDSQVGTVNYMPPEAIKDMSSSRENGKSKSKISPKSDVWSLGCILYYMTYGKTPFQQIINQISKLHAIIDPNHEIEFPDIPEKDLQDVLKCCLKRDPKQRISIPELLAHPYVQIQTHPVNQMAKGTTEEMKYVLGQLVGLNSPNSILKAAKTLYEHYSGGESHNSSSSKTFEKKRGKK
Description: To evaluate an inhibitory activity of the compound according to the present invention against LRRK2, LRRK2 (G2019S), DYRK1, CLK1, and TTK kinases, experiments were performed as follows.
Each of the Example compounds was reacted with a purified human TTK (SignalChem #T20-10G) enzyme to evaluate an ability to inhibit an enzyme using a method as described below. A composition of 40 mM Tris-HCl (pH 7.4), 20 mM MgCl2, 0.1 mg/mL BSA (a 5× kinase buffer, SignalChem #K03-09), and 50 μM DTT (SignalChem #D86-09B) was used as a reaction buffer, and all reactions of test substances were performed in the reaction buffer. Each of the compounds was diluted […] from a 10 mM DMSO stock using a serial dilution method, and enzyme activities were measured at final compound concentrations of 1, 0.333333, 0.111111, 0.037037, 0.012346, 0.004115, 0.001372, 0.000457, 0.000152, 0.000051, and 0.000017 μM. In the test, purified ATP (5 μM, Promega #V6930) and an MBP enzyme substrate (0.2 μg, SignalChem M42-51N) were reacted with a human TTK (7.5 ng) enzyme at 25° C. for 4 hours, and the enzyme activities were then determined using an in vitro ADP-Glo™ kinase assay (Promega #V6930). An enzyme-activity reaction solution, an ADP-Glo reaction solution, and an enzyme-ability detection solution were reacted at a ratio of 2:2:1 to measure a degree of inhibition of the enzyme activity with luminescence. The degree of inhibition of the enzyme activity according to the treatment concentration of each of the compounds was calculated based on the fluorescence of the enzyme activity of the solvent control which was not treated with the compound. In this case, the concentration of each of the compounds inhibiting 50% of the enzyme activity was determined to be an IC50 (nM) value, and calculated using Prism (Version 8.2 GraphPad) software.

T2 sequence (P49759 129-484 limits assumed): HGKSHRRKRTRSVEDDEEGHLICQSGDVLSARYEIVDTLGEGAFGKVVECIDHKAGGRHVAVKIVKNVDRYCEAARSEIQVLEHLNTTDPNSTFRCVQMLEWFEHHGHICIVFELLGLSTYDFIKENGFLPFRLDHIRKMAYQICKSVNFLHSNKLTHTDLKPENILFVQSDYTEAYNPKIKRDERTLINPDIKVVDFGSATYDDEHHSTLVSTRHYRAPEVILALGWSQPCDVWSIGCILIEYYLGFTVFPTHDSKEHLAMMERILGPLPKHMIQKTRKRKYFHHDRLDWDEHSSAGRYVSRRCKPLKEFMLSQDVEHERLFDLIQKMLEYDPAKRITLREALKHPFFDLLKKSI
Sequence of LRRK2 (Q5S007 970-2527 limits assumed): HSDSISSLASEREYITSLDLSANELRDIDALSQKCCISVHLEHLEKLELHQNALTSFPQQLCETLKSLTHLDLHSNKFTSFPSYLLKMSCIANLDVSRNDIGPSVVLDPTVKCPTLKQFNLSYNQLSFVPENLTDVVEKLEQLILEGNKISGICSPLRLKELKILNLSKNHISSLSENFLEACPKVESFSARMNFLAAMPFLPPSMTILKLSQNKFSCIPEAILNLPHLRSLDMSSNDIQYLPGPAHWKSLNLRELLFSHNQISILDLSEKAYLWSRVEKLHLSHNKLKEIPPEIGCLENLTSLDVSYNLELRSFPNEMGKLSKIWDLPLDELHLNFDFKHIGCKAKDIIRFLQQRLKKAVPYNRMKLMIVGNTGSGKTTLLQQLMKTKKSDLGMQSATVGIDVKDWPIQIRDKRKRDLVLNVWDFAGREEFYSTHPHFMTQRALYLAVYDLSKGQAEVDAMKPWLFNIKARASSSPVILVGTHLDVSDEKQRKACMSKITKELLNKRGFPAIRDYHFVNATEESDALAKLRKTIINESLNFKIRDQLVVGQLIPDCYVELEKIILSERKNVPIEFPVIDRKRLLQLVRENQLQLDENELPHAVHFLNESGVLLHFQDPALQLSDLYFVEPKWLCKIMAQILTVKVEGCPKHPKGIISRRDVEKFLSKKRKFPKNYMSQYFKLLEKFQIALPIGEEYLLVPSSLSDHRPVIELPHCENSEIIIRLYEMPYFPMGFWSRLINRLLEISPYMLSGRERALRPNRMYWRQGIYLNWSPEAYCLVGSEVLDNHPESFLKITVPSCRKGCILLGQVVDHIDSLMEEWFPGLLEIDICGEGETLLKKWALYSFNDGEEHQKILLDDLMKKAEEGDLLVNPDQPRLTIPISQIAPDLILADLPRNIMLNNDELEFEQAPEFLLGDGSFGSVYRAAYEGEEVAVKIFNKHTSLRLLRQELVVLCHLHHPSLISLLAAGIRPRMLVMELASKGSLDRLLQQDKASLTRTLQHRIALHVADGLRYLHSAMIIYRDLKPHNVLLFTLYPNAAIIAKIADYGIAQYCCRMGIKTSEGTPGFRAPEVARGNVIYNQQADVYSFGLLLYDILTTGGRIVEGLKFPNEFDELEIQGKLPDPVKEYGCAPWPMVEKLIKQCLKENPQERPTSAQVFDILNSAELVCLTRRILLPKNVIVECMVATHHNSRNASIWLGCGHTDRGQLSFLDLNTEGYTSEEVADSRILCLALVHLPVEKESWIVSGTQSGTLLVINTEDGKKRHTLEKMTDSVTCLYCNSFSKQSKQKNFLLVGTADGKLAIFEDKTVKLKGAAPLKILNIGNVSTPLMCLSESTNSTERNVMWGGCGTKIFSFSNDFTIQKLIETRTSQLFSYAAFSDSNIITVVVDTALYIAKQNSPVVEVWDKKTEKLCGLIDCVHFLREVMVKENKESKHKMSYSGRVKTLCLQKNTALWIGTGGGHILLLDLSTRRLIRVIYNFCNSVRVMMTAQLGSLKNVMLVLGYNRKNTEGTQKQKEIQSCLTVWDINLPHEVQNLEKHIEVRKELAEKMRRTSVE
Sequence of LRRK2 (G2019S) (Q5S007 970-2527 G2019S limits assumed): as the sequence (Q5S007 970-2527 limits assumed) above, with G1050S counted along it

Row | SMILES | IC50 (LRRK2) | IC50 (LRRK2 (G2019S)) | GI50 (MDA-MB-231 cell line) | GI50 (SHP-77) | GI50 (MDA-MB-468 cell line) | IC50 (human GST-DYRK1A) | IC50 (human GST-CLK1) | IC50 (TTK)
1 | CN1CCC(NC(=O)c2ccc(Nc3nc(NC4CCCC4)c4c(C#N)c[nH]c4n3)c3c2OCCO3)CC1 [Example 146, 8-((5-cyano-4-(cyclopentylamino)-7H-pyrrolo[2,3-d]pyrimidin-2-yl)amino)-N-(1-methylpiperidin-4-yl)-2,3-dihydrobenzo[b][1,4]dioxin-5-carboxamide] |  |  | 101 to 300 nM |  | 101 to 300 nM |  |  | < 100 nM
2 | COc1cc(P2(=O)CCN(C3CCOCC3)CC2)ccc1Nc1nc(NC2CCCCC2)c2cc[nH]c2n1 [Example 61, 4-(4-((4-(cyclohexylamino)-7H-pyrrolo[2,3-d]pyrimidin-2-yl)amino)-3-methoxyphenyl)-1-(tetrahydro-2H-pyran-4-yl)-1,4-azaphosphinane 4-oxide] |  |  | 301 to 1000 nM |  |  | 301 to 1000 nM | 301 to 1000 nM | < 100 nM
3 | COc1cc(P2(=O)CCN(C3COC3)CC2)ccc1Nc1nc(NC2CCCC2)c2c(C#N)c[nH]c2n1 [Example 313, 4-(cyclo-pentylamino)-2-((2-methoxy-4-(1-(oxetan-3-yl)-4-oxido-1,4-azaphosphinan-4-yl)phenyl)amino)-7H-pyrrolo[2,3-d]pyrimidine-5-carbonitrile] |  |  |  |  |  | 101 to 300 nM | 101 to 300 nM | < 100 nM
4 | CNc1nc(Nc2ccc(S(=O)(=O)N3CCOCC3)cc2OC)nc2[nH]cc(C(F)(F)F)c12 [Example 160, N^2-(2-methoxy-4-(morpholinosulfonyl)phenyl)-N^4-methyl-5-(trifluoromethyl)-7H-pyrrolo[2,3-d]pyrimidine-2,4-diamine] | < 100 nM | 301 to 1000 nM | 301 to 1000 nM | 51 to 100 nM |  | 301 to 1000 nM | 301 to 1000 nM | 
5 | CCNc1nc(Nc2ccc(S(=O)(=O)N3CCOCC3)cc2OC)nc2[nH]cc(C#N)c12 [Example 63, 4-(ethylamino)-2-((2-methoxy-4-(morpholinosulfonyl)phenyl)amino)-7H-pyrrolo[2,3-d]pyrimidine-5-carbonitrile] | < 100 nM | < 100 nM | 301 to 1000 nM | 301 to 1000 nM |  | 301 to 1000 nM | 301 to 1000 nM | 

Other lines, results leading:

Row | IC50 (LRRK2) | IC50 (LRRK2 (G2019S)) | GI50 (MDA-MB-231 cell line) | GI50 (SHP-77) | GI50 (MDA-MB-468 cell line) | IC50 (human GST-DYRK1A) | IC50 (human GST-CLK1) | IC50 (TTK) | SMILES
6 | < 100 nM | 301 to 1000 nM | < 50 nM | < 50 nM | 101 to 300 nM | 301 to 1000 nM | 301 to 1000 nM |  | COc1cc(S(=O)(=O)N2CCOCC2)ccc1Nc1nc(NC2CCCCC2)c2c(C#N)c[nH]c2n1 [Example 73]
7 | < 100 nM | < 100 nM | 51 to 100 nM | < 50 nM | 51 to 100 nM | 301 to 1000 nM | 301 to 1000 nM |  | COc1cc(S(=O)(=O)N2CCC(N3CCOCC3)CC2)ccc1Nc1nc(NC2CCCCC2)c2c(C#N)c[nH]c2n1 [Example 91, 4-(cyclohexylamino)-2-((2-methoxy-4-((4-morpholinopiperidin-1-yl)sulfonyl)phenyl)amino)-7H-pyrrolo[2,3-d]pyrimidine-5-carbonitrile]
8 |  |  | 51 to 100 nM | < 50 nM | 101 to 300 nM | 301 to 1000 nM | 301 to 1000 nM |  | COc1cc(S(=O)(=O)N2CCOCC2)ccc1Nc1nc(N[C@H]2CCOC2)c2c(C#N)c[nH]c2n1 [Example 75, (S)-2-((2-methoxy-4-(morpholinosulfonyl)phenyl)amino)-4-((tetrahydrofuran-3-yl)amino)-7H-pyrrolo[2,3-d]pyrimidine-5-carbonitrile]
9 | < 100 nM | < 100 nM | 51 to 100 nM | 51 to 100 nM |  | 301 to 1000 nM | 301 to 1000 nM |  | CNc1nc(Nc2ccc(S(=O)(=O)N3CCOCC3)cc2OC)nc2[nH]cc(C#N)c12 [Example 62, 2-((2-methoxy-4-(morpholinosulfonyl)phenyl)amino)-4-(methylamino)-7H-pyrrolo[2,3-d]pyrimidine-5-carbonitrile]
10 | 101 to 300 nM | < 100 nM | 51 to 100 nM | 101 to 300 nM | 51 to 100 nM | 301 to 1000 nM | 301 to 1000 nM |  | COc1cc(S(=O)(=O)N2CCC(N3CCOCC3)CC2)ccc1Nc1nc(NC2CCCC2)c2c(C#N)c[nH]c2n1 [Example 90, 4-(cyclopentylamino)-2-((2-methoxy-4-((4-morpholinopiperidin-1-yl)sulfonyl)phenyl)amino)-7H-pyrrolo[2,3-d]pyrimidine-5-carbonitrile]
